# Test results as given in ChEMBL document CHEMBL2062415, “Steroids from Commiphora mukul display antiproliferative effect against human prostate cancer PC3 cells via induction of apoptosis” (Bioorg Med Chem Lett, 2012).
# The source made the active and inactive calls. No cut-off for these calls is given here.
# How the values were obtained:
# PC-3 [1] = experiment: Cytotoxicity against human PC3 cells after 24 hrs by MTT assay; assay type: functional, cell-based; conditions: PC-3, 24 h
# MCF7 [2] = experiment: Cytotoxicity against human MCF7 cells after 24 hrs by MTT assay; assay type: functional, cell-based; conditions: MCF7, 24 h
# PC-3 [3] = experiment: Cytotoxicity against human PC3 cells assessed as cell viability at 10 uM after 24 hrs by MTT assay; assay type: functional; conditions: PC-3, 24 h, read-out: Activity
# K562 [4] = experiment: Cytotoxicity against human K562 cells assessed as cell viability at 10 uM after 24 hrs by MTT assay; assay type: functional; conditions: K562, 24 h, read-out: Activity
# MCF7 [5] = experiment: Cytotoxicity against human MCF7 cells assessed as cell viability at 10 uM after 24 hrs by MTT assay; assay type: functional; conditions: MCF7, 24 h, read-out: Activity
# PC-3 [6] = experiment: Induction of apoptosis in human PC3 cells assessed as early apoptotic cells at 5 uM after 48 hrs by annexinV/propidium iodide staining-based FITC analysis relative to control; assay type: functional
# DU-145 [7] = experiment: Induction of apoptosis in human DU145 cells assessed as early apoptotic cells at 10 uM after 48 hrs by annexinV/propidium iodide staining-based FITC analysis (reference value: 2.34%); assay type: functional
# DU-145 [8] = experiment: Induction of apoptosis in human DU145 cells assessed as late apoptotic cells at 10 uM after 48 hrs by annexinV/propidium iodide staining-based FITC analysis (reference value: 2.78%); assay type: functional
# DU-145 [9] = experiment: Induction of apoptosis in human DU145 cells assessed as necrotic cells at 10 uM after 48 hrs by annexinV/propidium iodide staining-based FITC analysis (reference value: 0.35%); assay type: functional
# DU-145 [10] = experiment: Induction of apoptosis in human DU145 cells assessed as early apoptotic cells at 20 uM after 48 hrs by annexinV/propidium iodide staining-based FITC analysis (reference value: 2.34%); assay type: functional
# DU-145 [11] = experiment: Induction of apoptosis in human DU145cells assessed as late apoptotic cells at 20 uM after 48 hrs by annexinV/propidium iodide staining-based FITC analysis (reference value: 2.78%); assay type: functional
# DU-145 [12] = experiment: Induction of apoptosis in human DU145 cells assessed as necrotic cells at 20 uM after 48 hrs by annexinV/propidium iodide staining-based FITC analysis (reference value: 0.35%); assay type: functional
# MCF7 [13] = experiment: Induction of apoptosis in human MCF7 cells assessed as early apoptotic cells at 5 uM after 48 hrs by annexinV/propidium iodide staining-based FITC analysis (reference value: 5.48%); assay type: functional
# MCF7 [14] = experiment: Induction of apoptosis in human MCF7 cells assessed as necrotic cells at 5 uM after 48 hrs by annexinV/propidium iodide staining-based FITC analysis (reference value: 8.28%); assay type: functional
# MCF7 [15] = experiment: Induction of apoptosis in human MCF7 cells assessed as early apoptotic cells at 10 uM after 48 hrs by annexinV/propidium iodide staining-based FITC analysis (reference value: 5.48%); assay type: functional
# MCF7 [16] = experiment: Induction of apoptosis in human MCF7 cells assessed as early apoptotic cells at 20 uM after 48 hrs by annexinV/propidium iodide staining-based FITC analysis (reference value: 5.48%); assay type: functional
# K562 [17] = experiment: Induction of apoptosis in human K562 cells assessed as early apoptotic cells at 5 uM after 48 hrs by annexinV/propidium iodide staining-based FITC analysis (reference value: 2.08%); assay type: functional
# PC-3 [18] = experiment: Induction of apoptosis in human PC3 cells assessed as early apoptotic cells after 48 hrs by annexinV/propidium iodide staining-based FITC analysis relative to control; assay type: functional, cell-based
# PC-3 [19] = experiment: Cell cycle arrest in human PC3 cells assessed as accumulation at G2/M phase at 5 uM after 48 hrs by propidium iodide staining-based flow cytometric analysis relative to control; assay type: functional
# PC-3 [20] = experiment: Cell cycle arrest in human PC3 cells assessed as accumulation at S phase at 10 uM after 48 hrs by propidium iodide staining-based flow cytometric analysis relative to control; assay type: functional
# PC-3 [21] = experiment: Cell cycle arrest in human PC3 cells assessed as accumulation at G2/M phase at 10 uM after 48 hrs by propidium iodide staining-based flow cytometric analysis relative to control; assay type: functional
# PC-3 [22] = experiment: Cell cycle arrest in human PC3 cells assessed as accumulation at G0/G1 phase at 20 uM after 48 hrs by propidium iodide staining-based flow cytometric analysis relative to control; assay type: functional
# PC-3 [23] = experiment: Cell cycle arrest in human PC3 cells assessed as accumulation at S phase at 20 uM after 48 hrs by propidium iodide staining-based flow cytometric analysis relative to control; assay type: functional
# DU-145 [24] = experiment: Induction of apoptosis in human DU145 cells assessed as accumulation at G0/G1 phase at 10 uM after 48 hrs by propidium iodide staining-based flow cytometric analysis (reference value: 72.11%); assay type: functional
# DU-145 [25] = experiment: Induction of apoptosis in human DU145 cells assessed as accumulation at S phase at 10 uM after 48 hrs by propidium iodide staining-based flow cytometric analysis (reference value: 11.48%); assay type: functional
# DU-145 [26] = experiment: Induction of apoptosis in human DU145 cells assessed as accumulation at G2/M phase at 10 uM after 48 hrs by propidium iodide staining-based flow cytometric analysis (reference value: 16.14%); assay type: functional
# DU-145 [27] = experiment: Induction of apoptosis in human DU145 cells assessed as accumulation at S phase at 20 uM after 48 hrs by propidium iodide staining-based flow cytometric analysis (reference value: 11.48%); assay type: functional
# DU-145 [28] = experiment: Induction of apoptosis in human DU145 cells assessed as accumulation at G2/M phase at 20 uM after 48 hrs by propidium iodide staining-based flow cytometric analysis (reference value: 16.14%); assay type: functional
# DU-145 [29] = experiment: Induction of apoptosis in human DU145 cells assessed as accumulation at S phase at 40 uM after 48 hrs by propidium iodide staining-based flow cytometric analysis (reference value: 11.48%); assay type: functional
# MCF7 [30] = experiment: Induction of apoptosis in human MCF7 cells assessed as accumulation at G0/G1 phase at 5 uM after 48 hrs by propidium iodide staining-based flow cytometric analysis (reference value: 67.46%); assay type: functional
# MCF7 [31] = experiment: Induction of apoptosis in human MCF7 cells assessed as accumulation at S phase at 5 uM after 48 hrs by propidium iodide staining-based flow cytometric analysis (reference value: 22.99%); assay type: functional
# MCF7 [32] = experiment: Induction of apoptosis in human MCF7 cells assessed as accumulation at G0/G1 phase at 10 uM after 48 hrs by propidium iodide staining-based flow cytometric analysis (reference value: 67.46%); assay type: functional
# MCF7 [33] = experiment: Induction of apoptosis in human MCF7 cells assessed as accumulation at S phase at 10 uM after 48 hrs by propidium iodide staining-based flow cytometric analysis (reference value: 22.99%); assay type: functional
# K562 [34] = experiment: Induction of apoptosis in human K562 cells assessed as accumulation at G0/G1 phase at 10 uM after 48 hrs by propidium iodide staining-based flow cytometric analysis (reference value: 38.61%); assay type: functional
# K562 [35] = experiment: Induction of apoptosis in human K562 cells assessed as accumulation at S phase at 10 uM after 48 hrs by propidium iodide staining-based flow cytometric analysis (reference value: 45.67%); assay type: functional
# PC-3 [36] = experiment: Inhibition of cyclin A protein expression in human PC3 cells at 20 uM after 48 hrs by Western blot analysis; assay type: functional, cell-based
# PC-3 [37] = experiment: Induction of apoptosis in human PC3 cells assessed as increase in PARP cleavage product after 48 hrs by Western blot analysis; assay type: functional, cell-based
smiles,measurement,setting,value
CC[C@H](/C=C/[C@@H](C)[C@H]1CC[C@H]2[C@H]3[C@H]([C@H](O)C[C@]12C)[C@@]1(C)CC[C@H](O)CC1=C[C@H]3O)C(C)C,IC50,PC-3 [1],10.9 µM
same,IC50,MCF7 [2],9.04 µM
same,viability at 10 µM,PC-3 [3],40%
same,viability at 10 µM,K562 [4],32%
same,viability at 10 µM,MCF7 [5],36%
same,Activity,PC-3 [6],1.05%
same,Activity,DU-145 [7],4.02%
same,Activity,DU-145 [8],2.48%
same,Activity,DU-145 [9],0.28%
same,Activity,DU-145 [10],2.12%
same,Activity,DU-145 [11],5.73%
same,Activity,DU-145 [12],2.38%
same,Activity,MCF7 [13],6.72%
same,Activity,MCF7 [14],3.47%
same,Activity,MCF7 [15],6.81%
same,Activity,MCF7 [16],9.91%
same,Activity,K562 [17],3.77%
same,Activity,PC-3 [18],Dose-dependent effect
same,Activity,PC-3 [19],14.11%
same,Activity,PC-3 [20],23.27%
same,Activity,PC-3 [21],24.03%
same,Activity,PC-3 [22],55.82%
same,Activity,PC-3 [23],14.34%
same,Activity,DU-145 [24],65.66%
same,Activity,DU-145 [25],12.94%
same,Activity,DU-145 [26],21.4%
same,Activity,DU-145 [27],11.38%
same,Activity,DU-145 [28],20.74%
same,Activity,DU-145 [29],17.68%
same,Activity,MCF7 [30],72.36%
same,Activity,MCF7 [31],19.09%
same,Activity,MCF7 [32],71.05%
same,Activity,MCF7 [33],18.92%
same,Activity,K562 [34],39.64%
same,Activity,K562 [35],48.25%
same,inhibition,PC-3 [36],Active
same,Activity,PC-3 [37],Dose-dependent effect
